Laboratory results from patent publication US20190105367A1, “ANTIMICROBIAL 4-OXOQUINOLIZINES” (Emergent Product Development Gaithersburg Inc., priority 2011, published 2019).
In brackets after ≈: the same amount, converted by molar mass. Like-named read-outs stand apart in the source and are kept apart here. Marks after values point to notes of the source that are not given here.

Legend:
[1] = tested on: B. thailandensis; type: cell-based, Burkholderia thailandensis; conditions: for Dilutions improvement shift on B. thailandensis MIC90 (between pH 7 and pH 5): pH 7 vs pH 5
[2] = tested on: strains of A. baumannii and one strain of Acinetobacter sp.; experiment: MIC without polymyxin B, panel of Acinetobacter strains (Example 4); type: cell-based; conditions: for MIC range without PB Oct. 1, 2006 n = 8: 1st experiment, resistant strains, ATCC 19606, A329, A390 and A473 not taken
[3] = tested on: A. baumannii ATCC 19606; experiment: Preliminary MBC without and with sub-inhibitory polymyxin B (Example 4); type: cell-based, Acinetobacter baumannii; conditions: for MBC +0.06 μg/ml PB: A. baumannii ATCC 19606, +0.06 μg/ml polymyxin B
[4] = tested on: Acinetobacter sp. (H064200250); experiment: as above; type: cell-based; conditions: for MBC +[…] PB / MBC without PB: Acinetobacter spp. H064200250; for MBC without PB: without polymyxin B
Description: The plates were incubated for 18-20 hours at 37° C. The MBC was read as the lowest concentration at which colony growth was ca. 90% less than the positive control (i.e. usually where single colonies or no colonies were observed).

[5] = tested on: A. baumannii A489; experiment: as above; type: cell-based, Acinetobacter baumannii; conditions: preliminary MBC; for MBC without PB: without polymyxin B
[6] = tested on: A. baumannii A14; experiment: as above; type: cell-based, Acinetobacter baumannii; conditions: A. baumannii A14, preliminary MBC, 1st experiment; for MBC +0.06 μg/ml PB: +0.06 μg/ml polymyxin B; for MBC without PB: without polymyxin B
[7] = tested on: S. aureus 25923 HS; experiment: MIC, standard panel of Gram-positive and Gram-negative strains (Example 2); type: cell-based; conditions: Staphylococcus aureus, read-out: MIC S. aureus 25923 HS
[8] = tested on: S. aureus 101; experiment: as above; type: cell-based; conditions: Staphylococcus aureus
[9] = tested on: E. cloacae 13047; experiment: as above; type: cell-based, Enterobacter cloacae
[10] = tested on: A. baumanii 19606; experiment: as above; type: cell-based; conditions: Acinetobacter baumannii
[11] = tested on: GN31 Acinetobacter baumannii antibiotic susceptible isolate; experiment: Chequerboard synergy with polymyxin B, FICI (Example 6); type: cell-based
Outline: (§1)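 Broth microdilution chequerboard per CLSI in cation-adjusted Mueller-Hinton broth II; doubling dilutions spanning ≥2 above to 4 below each agent's MIC, polymyxin B fixed at 0.008–8 mg/L (0.004–4 mg/L for GN31). FICI summed from each agent's combination MIC over its MIC alone.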

[12] = tested on: GN52 Acinetobacter baumannii levofloxacin resistant clinical isolate; experiment: as above; type: cell-based
Outline: as §1

[13] = tested on: GN56 Acinetobacter baumannii levofloxacin resistant clinical isolate; experiment: as above; type: cell-based
Outline: as §1

[14] = Cytotoxicity (Example 7); type: cell-based; conditions: human, HEPG2 V1 cells
Description: The 4-oxoquinolizine compounds of the invention preferably have a low cytotoxicity against human cells. […].
Cytotoxicity was determined for the instant 4-oxoquinolizine compounds which show low cytotoxicity. (see Table 17 following). […]

[15] = tested on: S. aureus 25923; experiment: MIC, standard panel of Gram-positive and Gram-negative strains (Example 2); type: cell-based; conditions: Staphylococcus aureus
[16] = tested on: E. faecalis 29212; experiment: as above; type: cell-based, Enterococcus faecalis
[17] = tested on: S. aureus SMITH; experiment: MIC, panel of quinolone-resistant strains (Example 2); type: cell-based; conditions: Staphylococcus aureus, read-out: MIC S. aureus SMITH
[18] = tested on: S. pneumoniae 49619; experiment: as above; type: cell-based, Streptococcus pneumoniae
[19] = A. baumannii ATCC 19606, +0.06 μg/ml PB, 2nd experiment
[20] = A. baumannii ATCC 19606, without PB, 2nd experiment
[21] = Acinetobacter spp. H064200250 (OXA51), +[…] PB, preliminary MBC, 2nd experiment
[22] = Acinetobacter spp. H064200250 (OXA51), without PB, preliminary MBC, 2nd experiment
[23] = +[…] polymyxin B, preliminary MBC, 1st experiment
[24] = preliminary MBC, 1st experiment
[25] = A. baumannii A489, +[…] PB, 2nd experiment
[26] = A. baumannii A489, +[…] polymyxin B, 1st experiment
[27] = A. baumannii A489, without PB, 2nd experiment
[28] = A. baumannii A489, 1st experiment
[29] = Enterobacter cloacae, 13047; read-out: MIC E. cloacae 13047
[30] = in combination with polymyxin B
[31] = polymyxin B with the named antibiotic
[32] = Acinetobacter, Acinetobacter spp. H064200250 (OXA51), +[…] PB, preliminary MBC, 2nd experiment, read-out: MBC
[33] = Acinetobacter, read-out: MBC +[…] PB, Acinetobacter spp. H064200250, +[…] polymyxin B, preliminary MBC, 1st experiment
[34] = Acinetobacter baumannii, A489, A. baumannii A489, +[…] PB, 2nd experiment, read-out: MBC
[35] = Acinetobacter baumannii, A489, read-out: MBC +[…] PB, A. baumannii A489, +[…] polymyxin B, 1st experiment
[36] = Acinetobacter baumannii, ATCC19606, A. baumannii ATCC 19606, +0.06 μg/ml PB, 2nd experiment, read-out: MBC
[37] = Acinetobacter baumannii, ATCC19606, read-out: MBC +0.06 μg/ml PB, A. baumannii ATCC 19606, +0.06 μg/ml polymyxin B, 1st experiment
[38] = Enterococcus faecalis, 29212, read-out: MIC E. faecalis 29212
[39] = Streptococcus pneumoniae, 49619, read-out: MIC S. pneumoniae 49619

## 8-[(3S)-3-aminocyclopentyl]-1- cyclopropyl-7-fluoro-9-methyl- 4-oxo-quinolizine-3-carboxylic acid [Compound 10, reference compound]
[1]
  MIC90 B. thailandensis: <0.048 mg/L
  Dilutions improvement shift on B. thailandensis MIC90 (between pH 7 and pH 5): Yes, 2x
[2]
  MIC range without PB Oct. 1, 2006 n = 8: 0.5 to 8 mg/L
[2]; 2nd experiment, all strains except the ATCC strain
  MIC range without PB Oct. 14, 2008 n = 11: 0.5 to 2 mg/L
[3]; [19]
  MBC: 0.03 mg/L
[3]; 1st experiment
  MBC +0.06 μg/ml PB: 0.03 mg/L
[3]; [20]
  MBC: 0.125 mg/L
[4]; [21]
  MBC: 0.5 mg/L
[4]; [22]
  MBC: 1 mg/L
[4]; [23]
  MBC +[…] PB: 1 µg/mL
[4]; [24]
  MBC without PB: 0.5 mg/L
[5]; [25]
  MBC: 1 mg/L
[5]; [26]
  MBC +[…] PB: 1.00 mg/L
[5]; [27]
  MBC: 1 mg/L
[5]; [28]
  MBC without PB: 1 mg/L
[6]
  MBC +0.06 μg/ml PB: 2.00 mg/L
  MBC without PB: 2 mg/L

## Cc1c(-c2cc(F)c(N)cc2F)ccn2c(=O)c(C(=O)O)cc(C3CC3)c12 [Compound 2, 8-(4-amino-2,5-difluorophenyl)-1-cyclopropyl-9-methyl-4-oxo-4H-quinolizine-3-carboxylic acid]
[7]
  MIC: 0.125 mg/L (≈ 0.338 µM)
[8]
  MIC: 0.125 mg/L (≈ 0.338 µM)
[9]; [29]
  MIC: 0.25 mg/L (≈ 0.675 µM)
[10]
  MIC: 0.06 mg/L (≈ 0.162 µM)
[11]
  Combination drug MIC alone: 0.06 mg/L
  FICx: 0.25
  FICy: 0.24
[11]; combination with polymyxin B
  FICI: 0.49
  Synergy: Synergy (Synergy (FICI <0.5))
[11]; [30]
  Combination drug concentration in combination: 0.015 mg/L
[11]; [31]
  Polymyxin B MIC in combination: 0.06 mg/L
[12]
  Combination drug MIC alone: 4 mg/L
  FICx: 0.25
  FICy: 0.24
[12]; combination with polymyxin B
  FICI: 0.49
  Synergy: Synergy (Synergy (FICI <0.5))
[12]; [30]
  Combination drug concentration in combination: 1 mg/L
[12]; [31]
  Polymyxin B MIC in combination: 0.12 mg/L
[13]
  Combination drug MIC alone: 16 mg/L
  FICx: 0.06
  FICy: 0.50
[13]; combination with polymyxin B
  FICI: 0.56
  Synergy: Partial synergy (partial synergy/addition (FICI 0.51 to 0.75))
[13]; [30]
  Combination drug concentration in combination: 1 mg/L
[13]; [31]
  Polymyxin B MIC in combination: 0.25 mg/L
[14]
  IC50: 250 µM
[4]; [32]
  MBC: 0.06 mg/L (≈ 0.162 µM)
[4]; [33]
  MBC: ≤ 0.03 mg/L
[5]; [34]
  MBC: ≤ 0.03 mg/L
[5]; [35]
  MBC: ≤ 0.03 mg/L
[6]
  MBC +0.06 μg/ml PB: ≤0.03 mg/L

## Cc1c(-c2ccc(CN)c(F)c2)ccn2c(=O)c(C(=O)O)cc(C3CC3)c12 [Compound 4, 8-(3-fluoro-4-aminomethyl-phenyl)-1-cyclopropyl-9-methyl-4-oxo-quinolizine-3-carboxylic acid]
[15]
  MIC: 0.06 mg/L (≈ 0.164 µM)
[7]
  MIC: 0.125 mg/L (≈ 0.341 µM)
[16]; Enterococcus faecalis, 29212; read-out: MIC E. faecalis 29212
  MIC: 0.125 mg/L (≈ 0.341 µM)
[9]; [29]
  MIC: 0.06 mg/L (≈ 0.164 µM)
[10]
  MIC: 0.25 mg/L (≈ 0.682 µM)
[17]; CIP R
  MIC: 0.125 mg/L (≈ 0.341 µM)
[18]; Streptococcus pneumoniae, 49619, LEV S, read-out: MIC S. pneumoniae 49619
  MIC: 0.125 mg/L (≈ 0.341 µM)
[14]
  IC50: 60 µM
[3]; [36]
  MBC: ≤ 0.03 mg/L
[3]; [37]
  MBC: 0.06 mg/L
[4]; [32]
  MBC: 0.5 mg/L (≈ 1.36 µM)
[4]; [33]
  MBC: 8 mg/L (≈ 21.8 µM)
[5]; [34]
  MBC: 0.06 mg/L (≈ 0.164 µM)
[5]; [35]
  MBC: 1 mg/L (≈ 2.73 µM)
[6]
  MBC +0.06 μg/ml PB: 8 mg/L

## Cc1c(-c2ccc(CN)cc2)ccn2c(=O)c(C(=O)O)cc(C3CC3)c12 [Compound 5, 8-(4-aminomethyl-phenyl)-1-cyclopropyl-9-methyl-4-oxo-quinolizine-3-carboxylic acid]
[15]
  MIC: 0.03 mg/L (≈ 0.0861 µM)
[7]
  MIC: 0.125 mg/L (≈ 0.359 µM)
[16]; [38]
  MIC: 0.125 mg/L (≈ 0.359 µM)
[9]; [29]
  MIC: 0.06 mg/L (≈ 0.172 µM)
[10]
  MIC: 0.25 mg/L (≈ 0.718 µM)
[17]
  MIC: 0.125 mg/L (≈ 0.359 µM)
[18]; [39]
  MIC: 0.125 mg/L (≈ 0.359 µM)
[3]; [36]
  MBC: 0.06 mg/L (≈ 0.172 µM)
[3]; [37]
  MBC: 0.06 mg/L
[4]; Acinetobacter
  MBC: 4 mg/L (≈ 11.5 µM)
[4]; [33]
  MBC: 1 mg/L (≈ 2.87 µM)
[5]; [34]
  MBC: 0.5 mg/L (≈ 1.44 µM)
[5]; [35]
  MBC: 1 mg/L (≈ 2.87 µM)
[6]
  MBC +0.06 μg/ml PB: 8 mg/L

## Cc1c(-c2ccc(CN)cc2)c(F)cn2c(=O)c(C(=O)O)cc(C3CC3)c12 [Compound 6, 8-(4-aminomethyl-phenyl)-1-cyclopropyl-7-fluoro-9-methyl-4-oxo-quinolizine-3-carboxylic acid]
[1]
  Dilutions improvement shift on B. thailandensis MIC90 (between pH 7 and pH 5): No
[15]
  MIC: 0.03 mg/L (≈ 0.0819 µM)
[7]
  MIC: 0.25 mg/L (≈ 0.682 µM)
[16]; [38]
  MIC: 0.125 mg/L (≈ 0.341 µM)
[9]; Enterobacter cloacae, 13047, read-out: MIC E. cloacae 13047
  MIC: 0.125 mg/L (≈ 0.341 µM)
[10]
  MIC: 0.5 mg/L (≈ 1.36 µM)
[17]
  MIC: 0.125 mg/L (≈ 0.341 µM)
[18]; [39]
  MIC: 0.125 mg/L (≈ 0.341 µM)
[3]; [36]
  MBC: 0.06 mg/L (≈ 0.164 µM)
[3]; [37]
  MBC: 0.06 mg/L
[4]; Acinetobacter
  MBC: 1 mg/L (≈ 2.73 µM)
[4]; [33]
  MBC: 4 mg/L (≈ 10.9 µM)
[5]; [34]
  MBC: 0.5 mg/L (≈ 1.36 µM)
[5]; [35]
  MBC: 1 mg/L (≈ 2.73 µM)
[6]
  MBC +0.06 μg/ml PB: 8 mg/L

## Imipenem/cilastatin
[2]
  MIC range without PB Oct. 1, 2006 n = 8: 1 to 128 mg/L
[3]; [19]
  MBC: 1 mg/L
[3]; 1st experiment
  MBC +0.06 μg/ml PB: 2 mg/L
[3]; [20]
  MBC: 4 mg/L
[3]; A. baumannii ATCC 19606, without polymyxin B, 1st experiment
  MBC without PB: 2 mg/L
[4]; [21]
  MBC: 0.5 mg/L
[4]; [22]
  MBC: 8 mg/L
[4]; [23]
  MBC +[…] PB: 2 (0.5)* μg/ml
[4]; [24]
  MBC without PB: 16 mg/L
[5]; [25]
  MBC: 0.25 mg/L
[5]; [26]
  MBC +[…] PB: 2 mg/L
[5]; [27]
  MBC: 64 mg/L
[5]; [28]
  MBC without PB: 64 mg/L
[6]
  MBC +0.06 μg/ml PB: 1 mg/L
  MBC without PB: 2 mg/L
